The source of these data is paper PMC7496931, “Activation of Sirtuin 2 Inhibitors Employing Photoswitchable Geometry and Aqueous Solubility” (Chemmedchem, 2020).

The structures appear in SMILES notation. Read-outs that look alike come from different tables or passages of the source.

The target of one data set is T1, Sirt3 (Homo sapiens, UniProt Q9NTG7).
T1 construct: Expression and purification of Sirt1_133−747, Sirt2_56−356, and Sirt3_118−395 was carried out as described previously; made in house
T1 sequence (Q9NTG7 118-395): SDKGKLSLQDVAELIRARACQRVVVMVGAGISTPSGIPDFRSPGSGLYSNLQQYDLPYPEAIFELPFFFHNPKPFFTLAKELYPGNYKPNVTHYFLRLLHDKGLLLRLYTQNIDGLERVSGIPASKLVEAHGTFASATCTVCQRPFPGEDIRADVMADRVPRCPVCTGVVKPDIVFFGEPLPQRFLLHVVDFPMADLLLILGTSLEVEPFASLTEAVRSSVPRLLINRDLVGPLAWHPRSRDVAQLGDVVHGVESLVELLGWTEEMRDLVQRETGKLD
Description: Fluorescence-based ZMAL deacetylase activity assay, Sirt3. The following applies: non-irradiated; for IC50: read-out: Sirt3 inhibition, IC50. The format is biochemical. Here is the method:
(§1) The effect of the compounds on deacetylase activity of three human sirtuin isotypes (Sirt1–3) was investigated by a homogeneous fluorescence‐based assay, using (Z)‐Lys(acetyl)‐AMC (ZMAL) as substrate. In order to determine the impact of photoisomerization, the respective compounds were irradiated (365 nm, 5 min) in DMSO prior to incubation in the enzyme assay mixture. The results of the irradiated probes were finally compared to non‐irradiated measurements.
(§2) Cloning, expression and purification of recombinant proteins: Expression and purification of Sirt1_133−747, Sirt2_56−356, and Sirt3_118−395 was carried out as described previously.27 Identity and purity were verified by SDS‐PAGE.
(§3) Fluorescence‐based activity assay: The inhibitory effect of compounds on Sirt1–3 was detected via a previously reported fluorescence‐based assay.29 The synthetic substrate (Z)‐Lys(acetyl)‐AMC (ZMAL) is deacetylated by sirtuins, followed by tryptic digestion and thereby release of 7‐aminomethylcoumarin, leading to a fluorescent readout. Inhibition was determined by comparing percentage substrate conversion to a DMSO control after subtraction of the blank fluorescence signal. All compounds were tested at 100 or 50 μM and 10 μM respectively. […] IC50 values were calculated with OriginPro 9.0 G using a non‐linear regression to fit the dose response curve (Figure S6). An enzyme‐free blank control and a 100 % conversion control using AMC instead of ZMAL were measured as well. Inhibition measurements were performed in biological duplicates for all compounds. […]
(§4) Fluorescence-Based Activity Assay (ZMAL-Assay)
(§5) The influence of the synthesized compounds on the deacetylase activity of the class I sirtuins Sirt1–3 was determined in a homogenous fluorescence-based enzyme assay, using the artificial substrate Z-(Ac)Lys-AMC (ZMAL). ZMAL is processed by sirtuins yielding Z-Lys-AMC.
(§6) The latter is subsequently cleaved by tryptic digestion, releasing 7-amino-4-methylcoumarin (AMC), excitation of which leads to a fluorescent read out (λex=390 nm; λem=460 nm). Instead, […]
(§7) contribute to the fluorescence signal. Therefore, the fluorescence intensity is proportional to the activity of the respective sirtuin.
(§8) After subtraction of the blank fluorescence signal (without enzyme) from the signal of the respective probe, the residual signal intensity is related to a 100 % conversion control (AMC), […]
(§9) yielding the percentage substrate conversion. Comparison of the determined substrate conversion with a no-inhibition DMSO control yields the percentage inhibition at the respective […]
(§10) For determination of IC50, inhibitory activity of the respective compound was determined at 8 to 10 distinct concentrations. The measured values were analysed by a non-linear fit to the dose-response curve using a four parameter logistic model (Figure S6):
(§11) Figure S6: Non-linear regression of the dose-response curves of compounds 15c and 15f at the thermal equilibrium (∆, black) and after 5 minutes of 365 nm irradiation (red). […]
(§12) A maximal polarization control using just DMSO and a minimal polarization control using 1 µL of the 400 µM solution of 22 instead of inhibitor were performed as well as a blank control containing 1 µL of DMSO in 19 µL assay buffer. The mixture was incubated 10 min at 37 °C

Data set [1] deals with T2, Sirt2 (Homo sapiens, UniProt Q8IXJ6).
T2 construct: Expression and purification of Sirt1_133−747, Sirt2_56−356, and Sirt3_118−395 was carried out as described previously; made in house
T2 sequence (Q8IXJ6 56-356): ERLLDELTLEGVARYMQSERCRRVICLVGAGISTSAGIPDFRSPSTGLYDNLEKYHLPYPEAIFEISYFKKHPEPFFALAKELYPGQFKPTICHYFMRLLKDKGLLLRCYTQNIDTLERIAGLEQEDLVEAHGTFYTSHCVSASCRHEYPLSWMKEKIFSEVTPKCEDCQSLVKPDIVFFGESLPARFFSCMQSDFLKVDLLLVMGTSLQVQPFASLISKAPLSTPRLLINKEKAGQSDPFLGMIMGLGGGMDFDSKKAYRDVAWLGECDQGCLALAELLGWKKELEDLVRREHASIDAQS
As to the kind of experiment: Fluorescence-based ZMAL deacetylase activity assay, Sirt2. The format is biochemical. Conditions: non-irradiated; for IC50: read-out: Sirt2 inhibition, IC50; for inhibition at 10 µM / inhibition at 100 µM: read-out: Sirt2 inhibition, percent inhibition relative to controls. Here is the method: as §1, §2, §3, §4, §5, §6, §7, §8, §9, §10, §11, §12

In the next data set the target is T3, Sirt1 (Homo sapiens, UniProt Q96EB6).
T3 construct: Expression and purification of Sirt1_133−747, Sirt2_56−356, and Sirt3_118−395 was carried out as described previously; made in house
T3 sequence (Q96EB6 133-747): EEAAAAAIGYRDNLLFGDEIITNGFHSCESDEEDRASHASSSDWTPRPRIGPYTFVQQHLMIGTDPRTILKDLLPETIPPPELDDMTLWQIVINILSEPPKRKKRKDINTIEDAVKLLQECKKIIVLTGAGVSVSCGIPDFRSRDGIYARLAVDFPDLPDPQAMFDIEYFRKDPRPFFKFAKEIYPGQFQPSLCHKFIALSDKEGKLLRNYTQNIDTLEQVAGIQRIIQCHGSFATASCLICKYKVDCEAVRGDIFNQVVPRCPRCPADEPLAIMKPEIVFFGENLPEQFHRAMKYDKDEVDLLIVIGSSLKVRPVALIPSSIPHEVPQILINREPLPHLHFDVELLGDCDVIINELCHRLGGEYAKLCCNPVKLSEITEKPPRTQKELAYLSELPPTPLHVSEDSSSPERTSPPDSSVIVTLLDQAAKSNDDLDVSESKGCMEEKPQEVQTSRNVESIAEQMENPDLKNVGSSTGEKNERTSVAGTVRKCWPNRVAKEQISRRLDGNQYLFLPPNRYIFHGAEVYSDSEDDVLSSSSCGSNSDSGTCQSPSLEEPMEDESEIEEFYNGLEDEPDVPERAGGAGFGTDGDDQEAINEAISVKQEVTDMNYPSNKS
Description: Fluorescence-based ZMAL deacetylase activity assay, Sirt1. The format is biochemical. The following applies: non-irradiated. Here is the method: as §1, §2, §3, §4, §5, §6, §7, §8, §9, §10, §11
A maximal polarization control using just DMSO and a minimal polarization control using 1 µL of the 400 µM solution of 22 instead of inhibitor were performed as well as a blank control containing 1 µL of DMSO in 19 µL assay buffer. The mixture was incubated 10 min at 37 °C […]
(§13) (1 picture or pasted object on this page, not shown here)

The nature of data set [2]: UV/Vis spectra and half-life of thermal Z→E isomerization. Format: physicochemical. Here is the method:
Photochemistry: All photoisomerization experiments were conducted under ruby light of 630 nm and total exclusion of daylight. Illumination was executed using a Bio‐Link 254 Crosslinker from Vilber‐Lourmat equipped with six Vilber‐Lourmat T8‐L lamps (8 W, 365 nm). Visible light radiation of 630 nm (ruby) and 452 nm (blue) was derived from a Paulmann FlexLED 3D strip. All compounds were irradiated in solution using spectrophotometric grade solvents. Photoisomerization and UV/Vis‐spectra measurement was conducted in quartz glass cuvettes (114‐QS, Hellma Analytics) at room temperature.
UV/Vis Spectra and Half-Life of Thermal Isomerization
The half-life of the thermal Z→E isomerization after 5 minutes of 365 nm irradiation was determined by UV/Vis-spectroscopy. Therefore, solutions of the respective compounds (50 µM) in 5%, 50% or 90% DMSO in enzyme assay buffer (v/v) were prepared. An initial spectrum of the thermal equilibrium was recorded. After 5 minutes of irradiation with 365 nm the increase of absorbance at the thermal equilibrium maximum (λ∆max) was recorded as exemplified by compound 15c (Figure S3). Absorbance at λ = λ ∆max was plotted as a function of time. Non-linear regression yielded the half-life of the thermal Z→E isomerization (Table S1). For extrapolation of the reaction kinetics, the plateau value was set to the initial absorbance at λ=λ∆max. The following equation was used for non-linear regression:
y = (y0 − Plateau)e−kx + Plateau
Figure S3: Left: UV-Vis spectrum of 15c (50 µM) in assay buffer (5% DMSO, v/v) at the thermal equilibrium (∆) and the photostationary state (PSS) after UV irradiation (365 nm). Right:
Absorbance of 15c (50 µm) in assay buffer (5% DMSO, v/v) at λ∆max = 328 nm after 5 minutes of UV (365 nm) irradiation.
as §13

The target of data set [3] is T2, Sirt2. Also noted: method as in PMID 29685963. Conditions: lead 3, previously published; read-out: Sirt2 inhibition, IC50; cited from earlier work.
Setting [4] is: read-out: Sirt1 inhibition, percent inhibition relative to controls.
Setting [5] is: read-out: Sirt3 inhibition, percent inhibition relative to controls.

For `COC(=O)c1cncc(/N=N/c2cc(C)c(N)c(C)c2)c1` [6 f], the melting point – broadly, the temperature, or range, at which the solid turns liquid – was determined as 190.6 °C. For the same compound, at Sirt3, the “Sirt3 inhibition (class)” value is “n.i. (n.i.: no inhibition detected (<30 % @ 100 μM))”. For the same compound, the “Sirt2 inhibition (class)” value at Sirt2 [1] is recorded as “n.i. (n.i.: no inhibition detected (<30 % @ 100 μM))”. Moreover, the “Sirt1 inhibition (class)” value on Sirt1 is on record as “n.i. (n.i.: no inhibition detected (<30 % @ 100 μM))”.

`Cc1cc(O)cc(C)c1/N=N/c1cncc(C(N)=O)c1` [7 a]: the IC50 (commonly the concentration that inhibits the measured activity by half) was determined as 9.5 ± 0.9 µM at Sirt3 and 7.9 ± 0.6 µM at Sirt2 [1]. The inhibition – broadly, the change of the read-out against control, counted positive when it falls – at 50 µM at Sirt1 (setting [4]) turned out to be 14%.

On to `Cc1cc(/N=N/c2cncc(C(N)=O)c2)cc(C)c1O` [7 b], for which the melting point is 166.4 °C. Moreover, the 50% inhibitory concentration (IC50) on Sirt3 is 7.9 ± 0.5 µM. For the same compound, the IC50 at Sirt2 [1] came to 10.8 ± 0.6 µM. Further, the “thermal Z→E isomerization (in words)” value in data set [2] (in acetonitrile) is reported as “rapid thermal isomerization”. Further, at Sirt1 (setting [4]), the inhibition at 50 µM was 19%.

With `COc1cc(/N=N/c2cncc(C(N)=O)c2)cc(OC)c1O` [7 d], the melting point came out at 250.2 °C. Also, the inhibition at 50 µM at Sirt3 (@ 50 μM, read-out: Sirt3 inhibition, percent inhibition relative to controls) amounted to 39%. Besides, the inhibition at 10 µM on Sirt2 [1] was found to be 62%. In addition, the inhibition at 10 µM at Sirt1 (setting [4]) came out at 10%.

As to `CN(C)c1ccc(/N=N/c2cncc(C(N)=O)c2)cc1` [7 e], the inhibition at 10 µM on Sirt3 (setting [5]) was found to be 66%; at Sirt2 [1] it was 54%; on Sirt1 (setting [4]), 17%.

Take `CNC(=O)c1cncc(/N=N/c2cc(C)c(N)c(C)c2)c1` [12 a]: the inhibition at 100 µM came out at 45% at Sirt3 (setting [5]); 45% at Sirt2 [1]; 33% on Sirt1 (@ 100 μM, read-out: Sirt1 inhibition, percent inhibition relative to controls).

`CCNC(=O)c1cncc(/N=N/c2cc(C)c(N)c(C)c2)c1` [12 b]: the values for the inhibition at 10 µM at Sirt3 (setting [5]) and at Sirt2 [1] were 11% and 16%, respectively. Besides, at Sirt1, the “Sirt1 inhibition (class)” value was “n.i. (n.i.: no inhibition detected (<30 % @ 100 μM))”.

With `CCCCNC(=O)c1cncc(/N=N/c2cc(C)c(N)c(C)c2)c1` [12 c], the figures for the inhibition at 10 µM at Sirt3 (setting [5]) and at Sirt2 [1] were 11% and 17%, respectively. At Sirt1, the “Sirt1 inhibition (class)” value was “n.i. (n.i.: no inhibition detected (<30 % @ 100 μM))”.

Regarding `Cc1cc(/N=N/c2cncc(C(=O)NCCO)c2)cc(C)c1N` [12 d], the inhibition at 100 µM at Sirt3 (setting [5]) and on Sirt2 [1] was 43% each time. In addition, the “Sirt1 inhibition (class)” value on Sirt1 is on record as “n.i. (n.i.: no inhibition detected (<30 % @ 100 μM))”.

For the compound `NC(=O)c1cncc(OCc2cccc(/N=N/c3ccc(N4CCOCC4)cc3)c2)c1` [20 d], the melting point was found to be 202.1 °C. Further, the inhibition at 10 µM on Sirt3 (setting [5]) worked out at 33%. Further, at Sirt2 [1], the inhibition at 10 µM stood at 49% and the IC50 was approximately 10 µM. Moreover, the “thermal Z→E isomerization (in words)” value in data set [2] (aqueous solution) is recorded as “rapid thermal Z→E isomerization”. Also, the “Sirt1 inhibition (class)” value on Sirt1 is reported as “n.i. (n.i.: no inhibition detected (<30 % @ 100 μM))”.

Take `Cc1cc(O)cc(C)c1/C=C/c1cncc(C(N)=O)c1` [compound 3]: the IC50 on Sirt2 [3] was 25 µM.

Turning to `CCOC(=O)c1cncc(/N=N/c2cc(C)c(N)c(C)c2)c1` [compound 11], the “Sirt3 inhibition (class)” value on Sirt3 is reported as “n.i. (n.i.: no inhibition detected (<30 % @ 100 μM))”. The “Sirt2 inhibition (class)” value at Sirt2 [1] was “n.i. (n.i.: no inhibition detected (<30 % @ 100 μM))”. Moreover, at Sirt1, the “Sirt1 inhibition (class)” value was “n.i. (n.i.: no inhibition detected (<30 % @ 100 μM))”.
